Results published in article PMC6831561, “Pharmacological and Behavioral Effects of the Synthetic Cannabinoid AKB48 in Rats” (Frontiers in Neuroscience, 2019).
Read-outs that look alike come from different tables or passages of the source.

Assay: AKB48 plasma pharmacokinetics (LC-MS/MS)
Assay type: in vivo, rats
Conditions: for Tmax: male, Sprague-Dawley, rat, plasma, ip, read-out: time to peak plasma concentration (converted)
Experimental: To correlate the pharmacological effects of AKB48 with its blood levels, we measured somatosensory responses (visual, acoustic, and tactile), body temperature, and mechanical analgesia in rats at timed intervals post-AKB48 injection (for behavioral tests, see before), while simultaneously obtaining serial blood specimens for analysis of AKB48.
Sixteen male Sprague-Dawley rats were used in the study. Rats were anaesthetized with Equitesin [3 mL/kg intraperitoneal (ip); chloral hydrate 2.1 g, sodium pentobarbital 0.46 g, MgSO 1.06 g, propylene glycol 21.4 mL, ethanol (90%) 5.7 mL, H2O 3 mL] and implanted in the right jugular vein with a catheter, consisting of medical-grade tubing (Silastic, Dow Corning Corporation, MI, United States) according to the technique previously described ([Lecca et al., 2006]). A stable fixation in the mid-scapular region of the back was embedded by a polypropylene mesh (Evolution, BULEV, weight 48 g/mq, Dipromed, Italy). During the recovery period, at least 7 days after surgery, the catheters were flushed daily with 0.1 mL of gentamicin (40 mg/mL) and with heparinized saline (heparin 250 U/mL in 0.9% sterile saline). Fifteen days after recovery from surgery, rats were trained in handling, behavioral tests, and withdrawing blood from the catheter. Four groups of rats (n = 4) randomly received intraperitoneal injection of a single dose of AKB48 (0.1, 0.3, 0.5, or 3.0 mg/kg), and behavioral tests were conducted as previously reported in safety pharmacology studies (see before). Blood specimens (300 μL) were withdrawn via catheters immediately before the behavioral measurements (T = 0) and at 20, 40, 70, 140, and 195 min after drug injection. Blood specimens were collected into 1–mL vials containing sodium fluoride (4 mg/mL of blood) as preservative and anticoagulant. After each blood withdrawal, an equal volume of saline solution was infused via the intravenous catheter to maintain volume and osmotic homeostasis.
A dispersive liquid-liquid microextraction (DLLME) was performed for sample purification. Three hundred microliter of blood samples were spiked with 10 μL of JWH-209 D9 as an internal standard, achieving the final concentration of 20 ng/mL, and deproteinized with 500 μL of methanol. The sample was centrifuged at 10,000 rpm for 10 min, and 500 μL surnatant was transferred into a 15 mL conical tube containing 1 mL of water, 0.2 g of NaCl, and 100 μL of carbonate buffer, pH 9. In order to obtain the formation of the cloudy solution, 350 μL of a mixture, chloroform/methanol 1:2.5, respectively the extractant and the disperser solvent, was rapidly added to obtain the formation of a turbid mixture. […]

CCCCCn1nc(C(=O)NC23CC4CC(CC(C4)C2)C3)c2ccccc21 [AKB48, N-(1-adamantyl)-1-pentyl-1H-indazole-3-carboxamide]
plasma concentration versus dose (0.1–3.0 mg/kg i.p.): rising linearly
plasmatic concentrations after the peak (for the following 120 min): remained quite stable
Tmax (higher doses (0.5 and 3.0 mg/kg i.p.)): 60 min
Tmax (low doses (0.1 and 0.3 mg/kg i.p.)): 30 min
